Among the data in patent US9505736B2, “Histone deacetylase inhibitors and compositions and methods of use thereof” (CHDI Foundation, Inc., priority 2012, dated 2016) are IC50 values, retold here.

The subject of assay [1] is cellular histone deacetylase enzymatic activity in Jurkat E6-1 cells. The experiment in a line: Inhibition of cellular HDAC activity in Jurkat E6-1 cells, Class IIa selective substrate Boc-Lys(Tfa)-AMC. Type of assay: cell-based. The note with it: Homo sapiens. The procedure:
Analysis of Inhibition of Cellular HDAC Activity with Class IIa Histone Deacetylase (HDAC) Inhibitors
After penetration in Jurkat E6-1 cells, the substrate is deacetylated to Boc-Lys-AMC. After cell lysis and cleavage by trypsin, the fluorophore AMC is released from the deacetylated substrate only. The fluoresence of the sample is directly related to the histone deacetylase activity in the sample.
Jurkat E6.1 Cell Culture and Plating.
Jurkat E6.1 cells are cultured according to standard cell culture protocols in Jurkat E6.1 Growth Media (RPMI without phenol red, 10% FBS, 10 mM HEPES, and 1 mM Sodium Pyruvate). Jurkat E6.1 cells are counted using a Coulter Counter and resuspended in Jurkat E6.1 growth media at a concentration of 75,000 cells/35 μl. 35 μl or 75,000 cells is seeded into Greiner microtitre assay plates. The plates are then incubated at 37° C. and 5% CO2 while other assay components are being prepared.
(§1) Serially Dilute HDAC Inhibitor Compounds.
Stocks of 70 μl aliquots of the 10 mM compound in DMSO are prepared and stored at −20° C. From one stock aliquot of each compound to be tested and the reference compound, a 16-point serial dilution is prepared according to Table 1 using a 125 μl 16-channel Matrix multi-channel pipette.
2 μl (200×) of each diluted solution and each control (full activity: 100% DMSO alone or full inhibition 1 mM) is stamped into V-bottom polypropylene 384-well compound plates using either the Bravo, Janus, or 12.5 μl 16-channel Matrix multi-channel pipette. Each well with the 200× compound solution is diluted 1:20 by the addition of 38 μl Jurkat assay buffer+DMSO (9.5% DMSO, RPMI without phenol red, 0.09% FBS, 9 mM Hepes, and 0.9 mM Sodium Pyruvate equilibrated to room temperature)
Prepare 5× (500 μM) Boc-Lys(Tfa)-AMC Substrate.
5× (500 μM) substrate is prepared just prior to the addition to the assay. The 5× substrate is prepared by diluting a 100 mM Boc-Lys(Tfa)-AMC in DMSO solution 1:200 by adding it drop-wise to Jurkat assay medium (RPMI without phenol red, 0.1% FBS, 10 mM Hepes, and 1 mM Sodium Pyruvate equilibrated to 37° C.) while vortexing at slow speed to prevent precipitation.
10 ml of 3× lysis buffer is prepared with 8.8 ml of 3× stock lysis buffer (50 mM Tris-HCl, pH 8.0, 137 mM NaCl, 2.7 mM KCl, 1 mM MgCl2, 1% Nonidet P40 Substitute equilibrated to room temperature) and 1.2 ml of 3 mg/ml Trypsin equilibrated to room temperature.
5 μl of each solution of 1:20 diluted compound from above is transferred to the Greiner microtitre assay plates with 75,000 cells/well using the Bravo. Cells are then incubated for 2 hours at 37° C. and 5% CO2. The assay is then started by adding 10 μl of 5× (500 μM) substrate to the assay plate using either the Bravo or 16-channel Matrix multi-channel pipette. The cells are then incubated for 3 hours at 37° C. and 5% CO2. Next, 25 μl of 3× lysis buffer is added to each well using either the 125 μl 16 channel pipette or the Bravo. The assay plate is then incubated overnight (15-16 hours) at 37° C. and 5% CO2. The following day, the plates are shaken on an orbital shaker for 1 minute at 900 rpm. Finally the top read fluorescence (Excitation: 355 nm, Emission: 460 nm) is measured using PerkinElmer EnVision.

The target in assay [2] is human catalytic domain HDAC4 protein (Homo sapiens, UniProt P56524, A743G/DEL730-739/DEL742-742). The assay is described as follows: Inhibition of HDAC4 catalytic domain enzymatic activity, Boc-Lys(Tfa)-AMC substrate, fluorescence. As to conditions: read-out: Biochemical HDAC-4 IC50. The procedure: Analysis of Inhibition of HDAC4 with Class IIa Histone Deacetylase (HDAC) Inhibitors
The substrate is deacetylated to Boc-Lys-AMC by HDAC4. Cleavage by trypsin results in the release of the fluorophore AMC from the deacetylated substrate. The fluorescence of the sample is directly related to the histone deacetylase activity in the sample.
as §1
Stocks of 60 μl aliquots of the 10 mM compound in DMSO are prepared and stored at −20° C. From one stock aliquot of each compound to be tested and the reference compound, a 16-point serial dilution is prepared according to Table 1 using a 125 μl 16-channel Matrix multi-channel pipette (Matrix Technologies Ltd).
2 μl (200×) of each diluted solution and each control (full activity: 100% DMSO alone or full inhibition 1 mM) is stamped into V-bottomed polypropylene 384-well compound plates using either the Bravo (384-well head from Agilent) or 12.5 μl 16-channel Matrix multi-channel pipette (Matrix Technologies Ltd).
Prepare HDAC4 Catalytic Domain Enzyme (0.86 μg/ml).
Prepare 5× (50 NM) Boc-Lys(Tfa)-AMC Substrate.
5× (50 μM) substrate is prepared just prior to the addition to the assay. A 1 mM substrate stock is made by diluting a 100 mM Boc-Lys(Tfa)-AMC in DMSO solution 1:100 by adding it drop-wise to assay buffer (equilibrated to room temperature) while vortexing at slow speed to prevent precipitation. The 5× substrate is prepared by diluting the 1 mM substrate solution 1:20 by adding it drop-wise to assay buffer (equilibrated to room temperature) while vortexing at slow speed to prevent precipitation.
Prepare 3× (30 NM) Developer/Stop Solution.
5 μl of each solution of 1:20 diluted compound from above is transferred to a clear bottomed, black, 384-well assay plate using the Bravo or the Janus (384-well MDT head from Perkin Elmer). Using a 16-channel Matrix multi-channel pipette, 35 μl of the working solution of HDAC4 catalytic domain enzyme (0.86 μg/ml in assay buffer) is transferred to the assay plate. The assay is then started by adding 10 μl of 5× (50 μM) substrate to the assay plates using either the Bravo, Janus or 16-channel Matrix multi-channel pipette. The assay plate is then shaken for two minutes on an orbital shaker at 900 rpm (rotations per minute). Next the plate is incubated for 15 minutes at 37° C. The reaction is stopped by adding 25 μl of 3× (30 μM) developer/stop solution to the assay plates using either the Bravo, Janus or a 16-channel Matrix multi-channel pipette. Assay plates are then shaken for 5 minutes on an orbital shaker at 1200 rpm. Next, the assay plates are incubated at 37° C. for 1 hour in a tissue culture incubator.

Sequence of human catalytic domain HDAC4 protein (P56524 with tags, fused parts or gaps A743G/DEL730-739/DEL742-742): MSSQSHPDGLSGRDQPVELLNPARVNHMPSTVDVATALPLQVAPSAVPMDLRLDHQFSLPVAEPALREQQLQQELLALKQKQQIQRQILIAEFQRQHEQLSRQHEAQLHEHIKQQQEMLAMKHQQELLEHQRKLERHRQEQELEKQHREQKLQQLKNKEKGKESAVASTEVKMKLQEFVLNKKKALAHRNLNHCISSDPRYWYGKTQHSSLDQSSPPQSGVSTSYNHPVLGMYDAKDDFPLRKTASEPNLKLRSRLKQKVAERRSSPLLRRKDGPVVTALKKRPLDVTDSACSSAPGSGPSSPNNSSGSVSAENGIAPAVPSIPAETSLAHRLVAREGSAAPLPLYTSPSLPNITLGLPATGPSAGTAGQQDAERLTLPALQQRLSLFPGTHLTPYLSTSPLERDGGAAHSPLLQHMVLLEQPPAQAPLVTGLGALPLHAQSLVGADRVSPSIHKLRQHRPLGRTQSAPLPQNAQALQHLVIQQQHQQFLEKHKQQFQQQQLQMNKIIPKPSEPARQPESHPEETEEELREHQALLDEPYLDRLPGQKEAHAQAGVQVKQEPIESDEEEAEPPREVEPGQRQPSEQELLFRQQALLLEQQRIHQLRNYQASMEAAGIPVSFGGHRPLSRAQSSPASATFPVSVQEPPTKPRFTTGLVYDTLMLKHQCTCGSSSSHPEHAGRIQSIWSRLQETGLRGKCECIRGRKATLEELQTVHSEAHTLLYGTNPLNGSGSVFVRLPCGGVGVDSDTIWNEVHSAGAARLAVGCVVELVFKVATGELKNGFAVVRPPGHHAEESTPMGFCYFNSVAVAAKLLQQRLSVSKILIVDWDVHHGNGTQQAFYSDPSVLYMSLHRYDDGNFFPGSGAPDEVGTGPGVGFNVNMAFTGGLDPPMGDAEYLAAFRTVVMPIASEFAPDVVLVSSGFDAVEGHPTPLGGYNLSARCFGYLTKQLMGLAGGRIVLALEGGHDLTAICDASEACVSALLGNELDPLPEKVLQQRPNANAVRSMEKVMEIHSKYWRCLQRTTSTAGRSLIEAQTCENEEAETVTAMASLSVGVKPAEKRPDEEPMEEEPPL

As to `O=C(NO)[C@@]1(F)[C@H](c2ccccc2)[C@H]1c1ccc(-c2cnc(C3CC3)o2)cc1` (racemic) [(1R*,2S*,3S*)-2-(4-(2-Cyclopropyloxazol-5-yl)phenyl)-1-fluoro-N-hydroxy-3-phenylcyclopropanecarboxamide], the IC50 (as a rule, the concentration that gives 50% inhibition) worked out at 28000 nM in assay [1] and 4650 nM in assay [2].
In the case of `O=C(NO)[C@]1(F)[C@H](c2ccccc2)[C@H]1c1ccc(-c2nccc(C(F)(F)F)n2)cc1` [(1S,2S,3S)-1-Fluoro-N-hydroxy-2-phenyl-3-(4-(4-(trifluoromethyl)pyrimidin-2-yl)phenyl)cyclopropanecarboxamide], the IC50 in assay [1] was determined as 260 nM.
On to `O=C(NO)[C@@]1(F)[C@@H](c2ccccc2)[C@@H]1c1ccc(-c2nccc(C(F)(F)F)n2)cc1` [(1R,2R,3R)-1-Fluoro-N-hydroxy-2-phenyl-3-(4-(4-(trifluoromethyl)pyrimidin-2-yl)phenyl)cyclopropanecarboxamide], for which the IC50 in assay [1] was above 50000 nM.
Consider `O=C(NO)[C@@]1(F)[C@@H](c2ccccc2)[C@@H]1c1ccc(-c2ncc(OC(F)F)cn2)cc1` [(1R,2R,3R)-2-(4-(5-(Difluoromethoxy)pyrimidin-2-yl)phenyl)-1-fluoro-N-hydroxy-3-phenylcyclopropanecarboxamide], for which the IC50 in assay [1] is above 50000 nM.
For the compound `Cc1cnc(-c2ccc([C@H]3[C@H](c4ccccc4)[C@]3(Cl)C(=O)NO)cc2)nc1` [(1R,2R,3R)-1-Chloro-N-hydroxy-2-(4-(5-methylpyrimidin-2-yl)phenyl)-3-phenylcyclopropanecarboxamide], in assay [1], the IC50 was 15300 nM.
Turning to `Cc1cnc(-c2ccc([C@@H]3[C@@H](c4ccccc4)[C@@]3(F)C(=O)NO)cc2)nc1` [(1S,2S,3S)-1-Fluoro-N-hydroxy-2-(4-(5-methylpyrimidin-2-yl)phenyl)-3-phenylcyclopropanecarboxamide], in assay [1], the IC50 worked out at 120 nM.
With `O=C(NO)[C@@]1(F)[C@H](c2ccccc2)[C@H]1c1cc(Cl)c2c(c1)OCCO2` (racemic) [(1R*,2S*,3S*)-2-(8-Chloro-2,3-dihydrobenzo[b][1,4]dioxin-6-yl)-1-fluoro-N-hydroxy-3-phenylcyclopropanecarboxamide], the concentration for half-maximal inhibition (IC50) in assay [1] was 40000 nM; in assay [2], 6470 nM.
`O=C(NO)[C@]1(F)[C@H](c2ccccc2)[C@H]1c1ccc(-c2cnc(C3CC3)o2)cc1` (racemic) [(1S*,2S*,3S*)-2-(4-(2-Cyclopropyloxazol-5-yl)phenyl)-1-fluoro-N-hydroxy-3-phenylcyclopropanecarboxamide]: the values for the IC50 in assay [1] and in assay [2] were 310 nM and 20 nM, respectively.
As for `O=C(NO)[C@@]1(F)[C@H](c2ccccc2)[C@H]1c1ccnc(C2CC2)c1` (racemic) [(1R*,2S*,3S*)-2-(2-Cyclopropylpyridin-4-yl)-1-fluoro-N-hydroxy-3-phenylcyclopropanecarboxamide], the IC50 in assay [1] and in assay [2] was above 50000 nM throughout.
As for `O=C(NO)[C@]1(F)[C@H](c2ccccc2)[C@H]1c1cnc(-c2ccc(F)cc2)s1` [(1S,2R,3S)-1-Fluoro-2-(2-(4-fluorophenyl)thiazol-5-yl)-N-hydroxy-3-phenylcyclopropanecarboxamide], the IC50 worked out at 690 nM in assay [1] and 60 nM in assay [2].
On the same counts, the results for `O=C(NO)[C@]1(F)[C@H](c2ccccc2)[C@H]1c1ccc(Br)cc1` (racemic) [(1S*,2S*,3S*)-2-(4-Bromophenyl)-1-fluoro-N-hydroxy-3-phenylcyclopropanecarboxamide] are 870 nM and 60 nM.
In assay [1], `Cc1cnc(-c2ccc([C@H]3[C@H](c4ccccc4)[C@]3(F)C(=O)NO)cc2)nc1` [(1R,2R,3R)-1-Fluoro-N-hydroxy-2-(4-(5-methylpyrimidin-2-yl)phenyl)-3-phenylcyclopropanecarboxamide] came in with an IC50 of 8900 nM.
With `O=C(NO)[C@@]1(F)[C@@H](c2ccccc2)[C@@H]1c1ccc(-c2ncc(F)cn2)cc1` [(1R,2R,3R)-1-Fluoro-2-(4-(5-fluoropyrimidin-2-yl)phenyl)-N-hydroxy-3-phenylcyclopropanecarboxamide], the IC50 in assay [1] is 4500 nM.
On the same count and under the same terms, then `O=C(NO)[C@]1(F)[C@H](c2ccccc2)[C@H]1c1ccc(-c2ncc(OC(F)F)cn2)cc1` [(1S,2S,3S)-2-(4-(5-(Difluoromethoxy)pyrimidin-2-yl)phenyl)-1-fluoro-N-hydroxy-3-phenylcyclopropanecarboxamide], with 220 nM.
